Values joined by “and” are separate entries in the source; they are usually repeats but may differ in a detail not shown here. Equal entries are not always repeated. Toxic doses and inconclusive results are not listed.

For the assay, the system named is L1210 leukemia ip in BDF1 mice, survival T/C. Briefly: NCI In Vivo Anticancer Drug Screen. Data for tumor model L1210 Leukemia (intraperitoneal) in B6D2F1 (BDF1) mice. To be noted: endpoint: mean survival time, higher = longer survival. A digest of the protocol:
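Read-out is survival time, reported as the treated-group measurement over the vehicle-control measurement.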

[1] abbreviates: dose: 50.0 mg/kg/injection, schedule: Q01DX001 (ip), vehicle: saline.
Setting [2] is: dose: 100.0 mg/kg/injection, schedule: Q01DX001 (ip), vehicle: saline.
[3] abbreviates: dose: 200.0 mg/kg/injection, schedule: Q01DX001 (ip), vehicle: saline.
The mark [4] stands for this setting: dose: 100.0 mg/kg/injection, schedule: Q01DX009 (ip), vehicle: Klucel (hydroxypropylcellulose) (HPC).
Setting [5] is: dose: 200.0 mg/kg/injection, schedule: Q01DX009 (ip), vehicle: Klucel (hydroxypropylcellulose) (HPC).
The mark [6] stands for this setting: dose: 400.0 mg/kg/injection, schedule: Q01DX009 (ip), vehicle: Klucel (hydroxypropylcellulose) (HPC).
Where [7] appears, read: dose: 400.0 mg/kg/injection, schedule: Q01DX001 (ip), vehicle: saline.
The mark [8] stands for this setting: dose: 100.0 mg/kg/injection, schedule: Q04DX003 (ip), vehicle: saline.

For the compound `Fc1c(F)c(F)c(Oc2nc(-c3ccccc3)nc(-c3ccccc3)n2)c(F)c1F`, the T/C is 92 % of control (dose: 25.6 mg/kg/injection, schedule: Q04DX002 (ip), vehicle: saline with Tween-80); 106 % of control (dose: 64.0 mg/kg/injection, schedule: Q04DX002 (ip), vehicle: saline with Tween-80); 100 % of control (dose: 160.0 mg/kg/injection, schedule: Q04DX002 (ip), vehicle: saline with Tween-80); 95 % of control (dose: 400.0 mg/kg/injection, schedule: Q04DX002 (ip), vehicle: saline with Tween-80).
On to `NC(CSS(=O)(=O)O)=NCCSc1ccccc1`, for which the T/C is 95 % of control (dose: 12.5 mg/kg/injection, schedule: Q04DX002 (ip), vehicle: Klucel (hydroxypropylcellulose) (HPC)); 106 % of control (dose: 25.0 mg/kg/injection, schedule: Q04DX002 (ip), vehicle: Klucel (hydroxypropylcellulose) (HPC)); 106 % of control (dose: 50.0 mg/kg/injection, schedule: Q04DX002 (ip), vehicle: Klucel (hydroxypropylcellulose) (HPC)).
For `CP1CCC(O)(c2ccccc2)CC1` (stereo not given), the T/C by setting is: (dose: 100.0 mg/kg/injection, schedule: Q04DX002 (ip), vehicle: Klucel (hydroxypropylcellulose) (HPC)) 88 % of control; (dose: 200.0 mg/kg/injection, schedule: Q04DX002 (ip), vehicle: Klucel (hydroxypropylcellulose) (HPC)) 103 % of control; (dose: 400.0 mg/kg/injection, schedule: Q04DX002 (ip), vehicle: Klucel (hydroxypropylcellulose) (HPC)) 95 % of control.
As for `C=C1C(=O)OC2/C=C(\C)CC/C=C(\C)CC(OC(C)=O)C12` (stereo not given), the T/C runs as follows: under setting [1], 96 % of control; under setting [2], 96 % of control; under setting [3], 107 % of control.
Regarding `CC(=O)c1cccc(NC(=O)Nc2cccc(F)c2)c1`, the T/C by setting is: under setting [4], 103 % of control; under setting [5], 97 % of control; under setting [6], 110 % of control.
With `CN(C)CCCN=C=NC1CCCCC1`, the T/C runs as follows: (dose: 100.0 mg/kg/injection, schedule: Q04DX003 (ip), vehicle: Klucel (hydroxypropylcellulose) (HPC)) 98 % of control; (dose: 200.0 mg/kg/injection, schedule: Q04DX003 (ip), vehicle: Klucel (hydroxypropylcellulose) (HPC)) 95 % of control.
In the case of `OCn1cnc2c(SC3CCCC3)ncnc21`, the T/C (dose: 35.0 mg/kg/injection, schedule: Q01DX015 (ip), vehicle: saline) was 114 % of control; the T/C (dose: 50.0 mg/kg/injection, schedule: Q01DX009 (ip), vehicle: saline) was 112 % of control; the T/C (dose: 50.0 mg/kg/injection, schedule: Q01DX015 (ip), vehicle: saline) is 123 % of control; the T/C (dose: 80.0 mg/kg/injection, schedule: Q01DX009 (ip), vehicle: saline) is 119 % of control; the T/C (dose: 88.0 mg/kg/injection, schedule: Q01DX009 (ip), vehicle: Klucel (hydroxypropylcellulose) (HPC)) is 154 % of control; the T/C under setting [2] is 88 % of control. The T/C (dose: 120.0 mg/kg/injection, schedule: Q01DX015 (ip), vehicle: saline) is 153 % of control; the T/C (dose: 180.0 mg/kg/injection, schedule: Q01DX009 (ip), vehicle: other) was 152 % of control; the T/C (dose: 180.0 mg/kg/injection, schedule: Q01DX015 (ip), vehicle: saline) is 161 % of control; the T/C under setting [3] was 104 % of control; the T/C under setting [5] was 92 % of control; the T/C (dose: 270.0 mg/kg/injection, schedule: Q01DX015 (ip), vehicle: saline) is 113 % of control. Besides, the T/C under setting [7] is 111 % of control.
With `Cc1cccc(NNC(N)=O)c1`, the T/C is 103 % of control (dose: 55.0 mg/kg/injection, schedule: Q01DX Z (ip), vehicle: saline); 97 % of control (dose: 83.0 mg/kg/injection, schedule: Q01DX Z (ip), vehicle: saline); 101 % of control (dose: 125.0 mg/kg/injection, schedule: Q01DX Z (ip), vehicle: saline).
With `CCOC(=O)c1cnc(SCC)nc1N`, the T/C is 101 % of control under setting [8]; 98 % of control (dose: 200.0 mg/kg/injection, schedule: Q04DX003 (ip), vehicle: saline); 103 % of control (dose: 400.0 mg/kg/injection, schedule: Q04DX003 (ip), vehicle: saline).
With `CN(C(=O)COc1ccccc1)c1ccc([N+](=O)[O-])cc1`, the T/C is 95 % of control (dose: 100.0 mg/kg/injection, schedule: Q01DX009 (ip), vehicle: saline with Tween-80); 93 % of control (dose: 200.0 mg/kg/injection, schedule: Q01DX009 (ip), vehicle: saline with Tween-80); 95 % of control (dose: 400.0 mg/kg/injection, schedule: Q01DX009 (ip), vehicle: saline with Tween-80).
As for `CC(=O)C1CCC2C3CCC4=CC(=O)CCC4(C)C3(C)C(=O)CC12C` (stereo not given), the T/C is 102 % of control and 105 % of control (dose: 50.0 mg/kg/injection, schedule: Q01DX001 (sc), vehicle: steriod suspending solution); 102 % of control and 107 % of control (dose: 100.0 mg/kg/injection, schedule: Q01DX001 (sc), vehicle: steriod suspending solution); 105 % of control (dose: 200.0 mg/kg/injection, schedule: Q01DX001 (sc), vehicle: steriod suspending solution); 105 % of control and 96 % of control (dose: 400.0 mg/kg/injection, schedule: Q01DX001 (sc), vehicle: steriod suspending solution).
As to `CC(=O)OC1CCC2(C)C(CCC3C4CC=C(C(C)=O)C4(C)CCC32)C1` (stereo not given), the T/C reads like this: (dose: 100.0 mg/kg/injection, schedule: Q01DX009 (sc), vehicle: steriod suspending solution) 94 % of control; (dose: 100.0 mg/kg/injection, schedule: Q04DX003 (sc), vehicle: steriod suspending solution) 115 % of control; (dose: 200.0 mg/kg/injection, schedule: Q01DX009 (sc), vehicle: steriod suspending solution) 109 % of control; (dose: 200.0 mg/kg/injection, schedule: Q04DX003 (sc), vehicle: steriod suspending solution) 103 % of control; (dose: 400.0 mg/kg/injection, schedule: Q01DX009 (sc), vehicle: steriod suspending solution) 98 % of control; (dose: 400.0 mg/kg/injection, schedule: Q04DX003 (sc), vehicle: steriod suspending solution) 105 % of control.
For the compound `CS(=O)(=O)OCCC(=O)N1CCN(C(=O)CCOS(C)(=O)=O)CC1`, the T/C (dose: 6.3 mg/kg/injection, schedule: Q01DX001 (ip), vehicle: carboxymethylcellulose (CMC)) is 100 % of control and 105 % of control; the T/C (dose: 9.7 mg/kg/injection, schedule: Q01DX Z (ip), vehicle: methylcellulose (MC)) is 106 % of control; the T/C (dose: 12.5 mg/kg/injection, schedule: Q01DX001 (ip), vehicle: carboxymethylcellulose (CMC)) is 103 % of control and 122 % of control; the T/C (dose: 14.7 mg/kg/injection, schedule: Q01DX Z (ip), vehicle: methylcellulose (MC)) was 104 % of control; the T/C (dose: 16.0 mg/kg/injection, schedule: Q01DX002 (ip), vehicle: saline) was 115 % of control; the T/C (dose: 22.0 mg/kg/injection, schedule: Q01DX Z (ip), vehicle: methylcellulose (MC)) was 110 % of control and 112 % of control. Moreover, the T/C is, setting by setting: (dose: 25.0 mg/kg/injection, schedule: Q01DX001 (ip), vehicle: carboxymethylcellulose (CMC)) 112 % of control and 115 % of control; (dose: 25.0 mg/kg/injection, schedule: Q04DX003 (ip), vehicle: saline) 108 % of control; (dose: 31.0 mg/kg/injection, schedule: Q01DX002 (ip), vehicle: saline) 105 % of control and 115 % of control; (dose: 31.25 mg/kg/injection, schedule: Q01DX Z (ip), vehicle: methylcellulose (MC)) 156 % of control; (dose: 33.5 mg/kg/injection, schedule: Q01DX Z (ip), vehicle: methylcellulose (MC)) 150 % of control; under setting [1], 121 % of control. The T/C is, setting by setting: (dose: 50.0 mg/kg/injection, schedule: Q04DX003 (ip), vehicle: saline) 123 % of control; (dose: 62.5 mg/kg/injection, schedule: Q01DX Z (ip), vehicle: methylcellulose (MC)) 176 % of control; (dose: 75.0 mg/kg/injection, schedule: Q01DX Z (ip), vehicle: methylcellulose (MC)) 162 % of control; (dose: 76.0 mg/kg/injection, schedule: Q01DX Z (ip), vehicle: methylcellulose (MC)) 218 % of control; under setting [8], 153 % of control and 195 % of control; (dose: 170.0 mg/kg/injection, schedule: Q01DX Z (ip), vehicle: methylcellulose (MC)) 103 % of control and 115 % of control. Further, the T/C was 167 % of control under setting [3]; 93 % of control (dose: 225.0 mg/kg/injection, schedule: Q01DX Z (ip), vehicle: methylcellulose (MC)); 205 % of control and 240 % of control (dose: 250.0 mg/kg/injection, schedule: Q01DX002 (ip), vehicle: saline); 213 % of control under setting [7].
In the case of `Cc1ccc([N+](=O)[O-])cc1NC(=O)NCc1ccccc1`, the T/C is 89 % of control under setting [4], 89 % of control under setting [5] and 97 % of control under setting [6].
